“And” between values parts separate entries of the source, which are not always exact repeats. Equal values may be shown once. Toxic doses and inconclusive results are not listed. How the source made its calls: active means survival T/C of 150% or more; inactive means T/C below 125% in these data.
System: P388 leukemia ip, CD2F1 mice, survival T/C
Test: NCI In Vivo Anticancer Drug Screen. Data for tumor model P388 Leukemia (intraperitoneal) in CD2F1 (CDF1) mice
Conditions: endpoint: median survival time, higher = longer survival
Procedure, shortened: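 Mice carrying the transplanted tumor received test compound or vehicle. Survival was recorded in each group, and the value is the treated-group measurement divided by that of the vehicle-treated control group.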

[1] = dose: 50.0 mg/kg/injection, schedule: Q01DX005 (ip), vehicle: saline with Tween-80
[2] = dose: 100.0 mg/kg/injection, schedule: Q01DX005 (ip), vehicle: saline with Tween-80
[3] = dose: 200.0 mg/kg/injection, schedule: Q01DX005 (ip), vehicle: saline with Tween-80
[4] = dose: 60.0 mg/kg/injection, schedule: Q01DX005 (ip), vehicle: Klucel (hydroxypropylcellulose) (HPC)
[5] = dose: 120.0 mg/kg/injection, schedule: Q01DX005 (ip), vehicle: Klucel (hydroxypropylcellulose) (HPC)
[6] = dose: 240.0 mg/kg/injection, schedule: Q01DX005 (ip), vehicle: Klucel (hydroxypropylcellulose) (HPC)
[7] = dose: 50.0 mg/kg/injection, schedule: Q01DX009 (ip), vehicle: Klucel (hydroxypropylcellulose) (HPC)
[8] = dose: 100.0 mg/kg/injection, schedule: Q01DX009 (ip), vehicle: Klucel (hydroxypropylcellulose) (HPC)
[9] = dose: 200.0 mg/kg/injection, schedule: Q01DX009 (ip), vehicle: Klucel (hydroxypropylcellulose) (HPC)
[10] = dose: 25.0 mg/kg/injection, schedule: Q01DX009 (ip), vehicle: saline with Tween-80
[11] = dose: 50.0 mg/kg/injection, schedule: Q01DX009 (ip), vehicle: saline with Tween-80
[12] = dose: 100.0 mg/kg/injection, schedule: Q01DX009 (ip), vehicle: saline with Tween-80
[13] = dose: 200.0 mg/kg/injection, schedule: Q01DX009 (ip), vehicle: saline with Tween-80
[14] = dose: 60.0 mg/kg/injection, schedule: Q01DX005 (ip), vehicle: saline with Tween-80
[15] = dose: 120.0 mg/kg/injection, schedule: Q01DX005 (ip), vehicle: saline with Tween-80
[16] = dose: 240.0 mg/kg/injection, schedule: Q01DX005 (ip), vehicle: saline with Tween-80

Measured: T/C

O=C1CC2c3ccccc3C1c1ccccc12
inactive: [1] 95 % of control | [2] 94 % of control | [3] 96 % of control

NCC(O)c1cccc(O)c1 (stereo not given)
inactive: dose: 6.25 mg/kg/injection, schedule: Q01DX009 (ip), vehicle: saline 101 % of control and 92 % of control | dose: 12.5 mg/kg/injection, schedule: Q01DX009 (ip), vehicle: saline 101 % of control and 95 % of control | dose: 25.0 mg/kg/injection, schedule: Q01DX009 (ip), vehicle: saline 100 % of control

CN(C)P(=O)(N(C)C)N1CCCC1
inactive: dose: 50.0 mg/kg/injection, schedule: Q01DX009 (ip), vehicle: saline 104 % of control | dose: 100.0 mg/kg/injection, schedule: Q01DX009 (ip), vehicle: saline 106 % of control | dose: 200.0 mg/kg/injection, schedule: Q01DX009 (ip), vehicle: saline 105 % of control

Cc1cc2n(n1)C(C)(C)C(=O)Nc1ccc(Cl)cc1-2
inactive: [4] 96 % of control | [5] 96 % of control | [6] 93 % of control

O=C1OCC/C1=C\c1ccco1
inactive: dose: 50.0 mg/kg/injection, schedule: Q01DX005 (ip), vehicle: acetone 119 % of control | dose: 100.0 mg/kg/injection, schedule: Q01DX005 (ip), vehicle: acetone 103 % of control

NC1CCC[C@@H](O)[C@H]1O (stereo not given in full)
inactive: dose: 60.0 mg/kg/injection, schedule: Q01DX005 (ip), vehicle: saline 104 % of control | dose: 120.0 mg/kg/injection, schedule: Q01DX005 (ip), vehicle: saline 103 % of control | dose: 240.0 mg/kg/injection, schedule: Q01DX005 (ip), vehicle: saline 98 % of control

Cc1ccnc(Nc2nnc(Nc3cc(C)ccn3)c3ccccc23)c1
inactive: [1] 100 % of control | [2] 97 % of control | [3] 97 % of control

COc1cc(NCCCCCNCC(C)(C)C)c2ncccc2c1
inactive: dose: 12.5 mg/kg/injection, schedule: Q01DX005 (ip), vehicle: saline with Tween-80 109 % of control | dose: 25.0 mg/kg/injection, schedule: Q01DX005 (ip), vehicle: saline with Tween-80 107 % of control | [1] 91 % of control and 93 % of control

Cc1noc(NS(=O)(=O)c2ccc(NC(=O)NCCCl)cc2)c1C
inactive: dose: 30.0 mg/kg/injection, schedule: Q01DX005 (ip), vehicle: Klucel (hydroxypropylcellulose) (HPC) 102 % of control | [4] 98 % of control | [5] 95 % of control | [6] 97 % of control

CN=C1CN=C(OP(=O)(N2CCOCC2)N2CCOCC2)c2cc(Cl)ccc2N1
inactive: [7] 98 % of control | [8] 101 % of control | [9] 100 % of control

COCCC1CN(C(C)C)C(=O)C1(c1ccccc1)c1ccccc1 (stereo not given)
inactive: [7] 106 % of control | [8] 92 % of control | [9] 108 % of control

NC(Cc1ccccc1I)c1nn[nH]n1 (stereo not given)
inactive: [10] 107 % of control | [11] 102 % of control and 105 % of control and 111 % of control | [12] 98 % of control and 100 % of control and 95 % of control | [13] 110 % of control and 97 % of control | dose: 400.0 mg/kg/injection, schedule: Q01DX009 (ip), vehicle: saline with Tween-80 100 % of control and 96 % of control

Nc1nc(N)c2c(n1)CCCC2
inactive: dose: 6.25 mg/kg/injection, schedule: Q04DX003 (ip), vehicle: saline with Tween-80 105 % of control | dose: 12.5 mg/kg/injection, schedule: Q04DX003 (ip), vehicle: saline with Tween-80 100 % of control | dose: 25.0 mg/kg/injection, schedule: Q04DX003 (ip), vehicle: saline with Tween-80 100 % of control

O=S(=O)(O)C(Nc1ccc(Cl)cc1)c1ccccc1 (stereo not given)
inactive: [11] 100 % of control | [12] 105 % of control | [13] 114 % of control

COc1cc([C@H]2c3cc4c(cc3CC3COC(=O)[C@@H]32)OCO4)cc(Br)c1O (stereo not given in full)
inactive: dose: 15.0 mg/kg/injection, schedule: Q01DX005 (ip), vehicle: saline with Tween-80 101 % of control | dose: 30.0 mg/kg/injection, schedule: Q01DX005 (ip), vehicle: saline with Tween-80 101 % of control | [14] 99 % of control and 104 % of control | [15] 110 % of control | [16] 110 % of control

CCOc1c(N=Nc2ccc(OC)cc2)c(-c2ccccc2)nn1C(N)=S
inactive: [1] 100 % of control | [2] 100 % of control | [3] 102 % of control

COC(=O)c1cc(C2OC3OC(C)(C)OC3C2OC)nn1-c1ccc([N+](=O)[O-])cc1 (stereo not given)
inactive: [1] 109 % of control | [2] 100 % of control | [3] 104 % of control

Cc1ccc(C)c2c1CCC2C (stereo not given)
inactive: [10] 101 % of control and 110 % of control | [11] 111 % of control and 116 % of control | [12] 104 % of control and 114 % of control

NC(=S)N/N=C/c1c(Cl)nc2sccn12
inactive: dose: 100.0 mg/kg/injection, schedule: Q01DX001 (ip), vehicle: Klucel (hydroxypropylcellulose) (HPC) 92 % of control | dose: 200.0 mg/kg/injection, schedule: Q01DX001 (ip), vehicle: Klucel (hydroxypropylcellulose) (HPC) 97 % of control | dose: 400.0 mg/kg/injection, schedule: Q01DX001 (ip), vehicle: Klucel (hydroxypropylcellulose) (HPC) 97 % of control

CC[n+]1ccc(C(=O)NN)cc1
inactive: dose: 12.5 mg/kg/injection, schedule: Q04DX002 (ip), vehicle: saline with Tween-80 97 % of control | dose: 25.0 mg/kg/injection, schedule: Q04DX002 (ip), vehicle: saline with Tween-80 99 % of control | dose: 50.0 mg/kg/injection, schedule: Q04DX002 (ip), vehicle: saline with Tween-80 105 % of control

COc1ccccc1C1=NC(C)(C)CO1
inactive: [1] 99 % of control | [2] 94 % of control | [3] 91 % of control

CCCCOc1cccc2c(NCCCCCCNc3c4ccccc4nc4c(OCCCC)cccc34)c3ccccc3nc12
inactive: dose: 0.62 mg/kg/injection, schedule: Q## X009 (ip), vehicle: lactic acid 104 % of control | dose: 1.25 mg/kg/injection, schedule: Q## X009 (ip), vehicle: lactic acid 104 % of control | dose: 2.5 mg/kg/injection, schedule: Q## X009 (ip), vehicle: lactic acid 106 % of control | dose: 5.0 mg/kg/injection, schedule: Q## X009 (ip), vehicle: lactic acid 99 % of control

CCOC(=O)C(NC(C)=O)(C(=O)OCC)c1ccc([N+](=O)[O-])cn1
inactive: dose: 25.0 mg/kg/injection, schedule: Q01DX009 (ip), vehicle: other 92 % of control | dose: 50.0 mg/kg/injection, schedule: Q01DX009 (ip), vehicle: other 90 % of control | dose: 100.0 mg/kg/injection, schedule: Q01DX009 (ip), vehicle: other 95 % of control | dose: 200.0 mg/kg/injection, schedule: Q01DX009 (ip), vehicle: other 95 % of control | dose: 400.0 mg/kg/injection, schedule: Q01DX009 (ip), vehicle: other 102 % of control

NC(=O)c1sc(N2CCCC2)nc1N
inactive: [14] 112 % of control | [15] 105 % of control | [16] 118 % of control

CC(C)CC1SCC(=O)N1c1nncs1 (stereo not given)
inactive: [14] 103 % of control | [15] 97 % of control | [16] 98 % of control

O=C(O)c1nnn(-c2ccccc2)n1
inactive: dose: 50.0 mg/kg/injection, schedule: Q01DX005 (ip), vehicle: saline 101 % of control | dose: 100.0 mg/kg/injection, schedule: Q01DX005 (ip), vehicle: saline 101 % of control | dose: 200.0 mg/kg/injection, schedule: Q01DX005 (ip), vehicle: saline 106 % of control

Source: PubChem BioAssay AID330 (DTP/NCI, 2004)
